Assay results published in patent publication US12514900B2, “Method to identify responders to osteoarthritis therapeutics” (OrthoTrophix, Inc., priority 2020, dated 2026).
Where no end group is shown, it is not given here.

What was measured:
human and rat bone cells = conditions: human and rat/murine orthologues; cited from earlier work
subjects with knee OA [1] = conditions: cited from earlier work
[2] = test system: subjects with bilateral knee osteoarthritis; conditions: human, in vivo
Method: Eighteen (18) orthopedic, rheumatologic and family practice centers in the U.S. participated in the study.
On the first dosing day, the randomized subjects were assessed by physical examinations and vital signs. Further, they completed the Knee injury and Osteoarthritis Outcome Score (KOOS), which includes the Western Ontario and McMaster Universities Osteoarthritis Index (WOMAC). The KOOS questionnaire assesses knee-specific activities of daily living, sports and recreation, knee-related quality of life, other symptoms such as stiffness, and knee pain. […] After assessments were completed, subjects received one intra-articular injection in each knee, with each injection prepared from the vial(s) marked for that knee. […] Subjects were monitored for adverse events during the injections and for a few hours after the injections. Vital signs were also monitored after the injections.
On the 7th, 14th, and 21st days after the first dosing, subjects received the second, third, and fourth (last) dosing of the same study materials, respectively. Safety and adverse event assessments were obtained as on the first dosing day.
Subjects returned to their respective study sites at 3, 6 and 12 months after the first dosing day for follow-up evaluations. In addition, the study sites monitored the subject's condition through telephone contact 9 months after the first dosing day. During the 3, 6, and 12 months post-treatment, subjects were evaluated on site with physical examinations, vital signs, serum chemistries, as well as completing patient-reported outcomes including the KOOS. Adverse events and concomitant medications were recorded. MRIs of both knees were obtained during the 6 and 12-month visits.

[3] = molecular target: integrin αVβ3 expressed by osteocytes (Homo sapiens, UniProt P05106+P06756); conditions: cited from earlier work
subjects with knee OA [4] = conditions: cited from earlier work; remark: listed apart in the source

Chain of integrin αVβ3 expressed by osteocytes (P06756 31-889 limits assumed): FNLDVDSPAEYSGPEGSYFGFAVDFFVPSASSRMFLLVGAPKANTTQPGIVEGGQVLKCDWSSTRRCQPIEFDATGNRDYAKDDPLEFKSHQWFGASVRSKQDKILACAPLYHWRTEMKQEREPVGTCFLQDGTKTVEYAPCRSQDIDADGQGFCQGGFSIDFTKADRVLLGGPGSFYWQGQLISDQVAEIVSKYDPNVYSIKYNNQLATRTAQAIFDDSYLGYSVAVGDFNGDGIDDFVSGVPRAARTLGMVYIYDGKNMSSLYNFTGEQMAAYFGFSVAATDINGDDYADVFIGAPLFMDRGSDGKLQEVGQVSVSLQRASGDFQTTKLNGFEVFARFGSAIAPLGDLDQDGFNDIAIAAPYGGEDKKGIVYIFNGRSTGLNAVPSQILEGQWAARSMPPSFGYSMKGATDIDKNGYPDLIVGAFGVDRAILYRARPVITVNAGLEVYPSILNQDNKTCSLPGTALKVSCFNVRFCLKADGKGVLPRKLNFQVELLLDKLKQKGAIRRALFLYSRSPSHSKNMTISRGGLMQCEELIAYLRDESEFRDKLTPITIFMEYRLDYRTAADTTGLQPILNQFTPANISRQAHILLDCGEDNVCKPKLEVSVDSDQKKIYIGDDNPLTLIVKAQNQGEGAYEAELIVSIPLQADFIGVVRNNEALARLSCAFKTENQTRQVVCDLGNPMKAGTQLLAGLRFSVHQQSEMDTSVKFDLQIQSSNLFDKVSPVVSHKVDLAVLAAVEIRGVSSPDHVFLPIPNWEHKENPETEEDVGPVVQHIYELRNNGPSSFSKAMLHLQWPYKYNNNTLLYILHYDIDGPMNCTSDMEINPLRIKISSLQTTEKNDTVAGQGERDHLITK
Chain of integrin αVβ3 expressed by osteocytes (P06756 891-1048 limits assumed): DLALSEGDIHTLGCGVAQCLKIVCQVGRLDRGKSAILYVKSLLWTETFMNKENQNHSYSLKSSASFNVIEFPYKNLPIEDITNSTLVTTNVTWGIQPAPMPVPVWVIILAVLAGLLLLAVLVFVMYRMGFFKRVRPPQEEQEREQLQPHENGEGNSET
Chain of integrin αVβ3 expressed by osteocytes (P05106 27-788): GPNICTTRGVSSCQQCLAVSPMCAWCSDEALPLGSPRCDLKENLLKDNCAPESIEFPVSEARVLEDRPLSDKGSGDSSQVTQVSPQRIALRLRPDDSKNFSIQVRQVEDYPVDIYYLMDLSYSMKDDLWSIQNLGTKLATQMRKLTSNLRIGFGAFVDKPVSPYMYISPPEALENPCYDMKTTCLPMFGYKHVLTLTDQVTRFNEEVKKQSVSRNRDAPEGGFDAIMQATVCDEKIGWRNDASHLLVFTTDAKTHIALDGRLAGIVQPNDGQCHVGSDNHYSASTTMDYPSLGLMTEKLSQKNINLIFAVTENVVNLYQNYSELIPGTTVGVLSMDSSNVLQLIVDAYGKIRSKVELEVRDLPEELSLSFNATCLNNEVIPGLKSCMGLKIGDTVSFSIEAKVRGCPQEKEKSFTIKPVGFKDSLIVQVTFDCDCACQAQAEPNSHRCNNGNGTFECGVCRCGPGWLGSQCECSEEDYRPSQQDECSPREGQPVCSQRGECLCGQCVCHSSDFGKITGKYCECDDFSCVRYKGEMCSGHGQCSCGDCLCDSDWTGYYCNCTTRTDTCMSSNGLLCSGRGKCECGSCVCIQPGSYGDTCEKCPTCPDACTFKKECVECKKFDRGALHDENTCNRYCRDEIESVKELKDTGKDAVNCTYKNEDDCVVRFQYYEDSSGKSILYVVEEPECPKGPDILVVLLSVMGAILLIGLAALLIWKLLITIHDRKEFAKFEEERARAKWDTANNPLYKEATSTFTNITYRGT

Which “Biological activities in bone cells of the other species” value (human and rat bone cells) does the source give for PDLLVRGDNDVPPFSGDGQHFMH [SEQ ID No: 14] here?
Its value is “interchangeably show biological activities in the bone cells of the other species”.

For O=P(O)(O)C(O)(Cc1cccnc1)P(=O)(O)O [risedronate], which Effects on pain (subjects with knee OA [1]; largest study, n=2483 (Bingham 2006)) is on record?
The Effects on pain was “favoring placebo over active drug”.

For N#Cc1c(N(CC(=O)[O-])CC(=O)[O-])sc(C(=O)[O-])c1CC(=O)[O-].[Sr+2].[Sr+2] [strontium ranelate], which “Risk of myocardial infarction” value (subjects with knee OA [1]; human, in vivo) is on record?
The value was “increase the risk of myocardial infarction”.

What does the source list for TDLQERGDNDISPFSGDGQPFKD [SEQ ID No: 10]?
Safety and tolerability [2]: safe and well tolerated; Severe adverse events related to the peptide [2]: no severe adverse events; Treatment-related adverse events [2]: mild or moderate, transient

For PDLQERGDNDISPFSGDGQPFKD [SEQ ID No: 12], which “Binding to integrin αVβ3” value [3] is on record?
The value was “selectively bind to integrin αVβ3”.

B1: Fibroblast Growth Factor-18 (protein, UniProt O76093 28-207, looked up)
Fibroblast growth factor 18: EENVDFRIHVENQTRARDDVSRKQLRLYQLYSRTSGKHIQVLGRRISARGEDGDKYAQLLVETDTFGSQVRIKGKETEFYLCMNRKGKLVGKPDGTSKECVFIEKVLENNYTALMSAKYSGWYVGFTKKGRPRKGPKTRENQQDVHFMKRYPKGQPELQKPFKYTTVTKRSRRIRPTHPA
notes: growth factor tested for cartilage regeneration in knee OA
Which “Clinical outcomes such as knee function or pain vs placebo” value (subjects with knee OA [4]) does the source give for B1 here?
Its value is “no significant improvement”.

What about the Tibiofemoral cartilage thickness (subjects with knee OA [4]) of the same molecule?
Its Tibiofemoral cartilage thickness is “small but statistically significant increase”.
